Measurements from patent publication US8293786B2 (Alltranz Inc., priority 2007, dated 2012).

Key:
human abdominal skin = assay: In vitro human skin permeation and skin disposition, flow-through diffusion cells (Examples 2, 2A, 2B); format: in vitro ADME; details: for Flux enhancement: total cannabidiol versus cannabidiol
Procedure: Flow through diffusion cells were used for the permeation studies. HEPES-buffered Hanks' balanced salts containing 40% PEG 400 with gentamicin or 40% aqueous PEG 400 with gentamicin were used for the receiver compartment. Donor solution was comprised of 90:8:2 PG:H2O:IPM solution or gel formulation. […] Drug accumulation in the skin after a 24, 30 or 42 h diffusion experiment was determined as μmol/g wet tissue weight.
The skin samples used in the following experiments were obtained from abdominal reduction surgery and dermatomed to a thickness of approximately 200 μm. The skin samples used herein were frozen at −20° C. for less than six months.
One (1) L of receiver fluid was prepared by measuring 1 L of nanopure water into a graduated cylinder. 90% of the water was added to an Erlenmeyer flask. Hanks' salts (1 bottle) were added to the water along with 5.96 g of HEPES and 0.35 g of sodium bicarbonate. The pH of the solution was adjusted with 1 N sodium hydroxide solution to pH 7.4. The remaining water was added and the receiver fluid was filtered through a 0.2μ filter (Millipore, Billerica, Mass.). Fifty (50) mg of gentamicin was added to the filtered receiver fluid and 400 mL of the receiver fluid was removed and replaced with 400 mL of PEG 400.
The receiver fluid was prepared by measuring 600 mL of nanopure H2O into a graduated cylinder. The H2O was filtered through a 0.2μ filter (Millipore, Billerica, Mass.). Fifty (50) mg of gentamicin was added to the filtered H2O and 400 mL of PEG 400 was added.
The prodrugs were made up in a solution of 45:4:1 PG:H2O:IPM. For this solution, the appropriate amount of drug was weighed into a glass silanized culture tube and IPM was added, the 50 μL of PG to coat the drug, then an additional 247 μL PG was added and the donor solution was vortexed again. Finally 26 μL of water was added. The gel formulation resulted from the mixing of absolute ethanol, nanopure water, IPM, Carbopol® 980, 0.1 N sodium hydroxide solution and the respective drug.
The gel formulation was comprised of absolute ethanol, nanopure water, IPM, Carbopol® 980, 0.1 sodium hydroxide solution and respective drug. The anhydrous gel was comprised of absolute ethanol, PEG monoethyl ether 550, Klucel® hydroxypropylcellulose, and respective drug.
Dermatomed skin harvested from abdominoplasty, stored at −20° C., was used for the experiments. A PermeGear flow-through (In-Line, Hellertown, Pa.) diffusion cell system was used for the skin permeation studies.
Diffusion cells were kept at 32° C. with a circulating water bath. Human epidermal skin was arranged in the diffusion cell with stratum corneum (upper layer of skin) facing the donor compartment. The permeation area of the skin was 0.95 cm^2. The data was collected from a human skin donor with three diffusion cells per treatment.
The receiver solution was HEPES-buffered Hanks' balanced salts with gentamicin containing 40% PEG 400 at a pH of 7.4 or 40% aqueous PEG 400 and flow rate was adjusted to 0.8 mL/h. Each cell was charged with 0.10 mL of the respective drug formulation (donor solution) or 50 μL of gel formulation which was rubbed into the skin for 15 sec with a Teflon coated rod. The formulation was applied to ensure complete coverage. […]. Diffusion cells were covered with a stopper or cap for the duration of the study.
Samples were collected into scintillation vials in 3 h increments for either 24, 30, or 42 h. All the samples were stored at 4° C. until extracted. An aliquot (0.5 mL) of the diffusion sample was placed into a silanized HPLC vial and 0.5 mL of acetonitrile was added to the sample, capped and vortexed.
At the end of the experiment, the skin tissue was removed from the diffusion cell, rinsed with nanopure water, and blotted dry with a paper towel. The skin was tape stripped twice using book tape (Scotch™, 3M, St. Paul, Minn.) to remove drug formulation adhering to the tissue surface.

[1] = Plasma stability of cannabidiol prodrugs (bioconversion to parent drug); format: in vitro ADME; details: for % mono-prodrug at time (h) / % Di-prodrug at time (h): Table 20, di-prodrug in plasma; for % mono-prodrug at time (h): mono-prodrug formed; for % Prodrug at time (h): Table 24, mono-prodrug in plasma
Procedure: An approximated 1 mg/mL stock solution of each prodrug was prepared in 100 μL of ethanol and 900 μL of acetonitrile. Ten (10) μL of stock was spiked into 1 mL of plasma and vortexed. The samples were kept sealed in an amber vial and samples were obtained to analyze for bioconversion to parent drug.

[2] = Table 16, 90:8:2 PG:H2O:IPM donor solution, 60/40 Hanks'/PEG 400 receiver fluid, CBD from applied prodrug
[3] = Table 16, 90:8:2 PG:H2O:IPM donor solution, 60/40 Hanks'/PEG 400 receiver fluid, as applied compound (CBD or intact prodrug)
[4] = Table 16, 90:8:2 PG:H2O:IPM donor solution, 60/40 Hanks'/PEG 400 receiver fluid, mono-prodrug (ALL00131) from applied di-prodrug
[5] = Table 16, 90:8:2 PG:H2O:IPM donor solution, 60/40 Hanks'/PEG 400 receiver fluid, prodrug applied, as total cannabidiol equivalents
[6] = Table 18, 90:8:2 PG:H2O:IPM donor solution, 40% aqueous PEG 400 receiver fluid, CBD from applied prodrug
[7] = Table 18, 90:8:2 PG:H2O:IPM donor solution, 40% aqueous PEG 400 receiver fluid, mono-prodrug from applied di-prodrug
[8] = Table 18, 90:8:2 PG:H2O:IPM donor solution, 40% aqueous PEG 400 receiver fluid, prodrug applied, as total cannabidiol equivalents
[9] = Table 23, gel formulation, 40% aqueous PEG 400 receiver fluid, CBD from applied prodrug
[10] = Table 23, gel formulation, 40% aqueous PEG 400 receiver fluid, as applied compound (CBD or intact prodrug)
[11] = Table 23, gel formulation, 40% aqueous PEG 400 receiver fluid, prodrug applied, as total cannabidiol equivalents

C=C(C)[C@@H]1CCC(C)=C[C@H]1c1c(OC(=O)COCCOCCOCCOC)cc(CCCCC)cc1OC(=O)COCCOCCOCCOC [ALL00132, CBD di(3,6,9,12-tetraoxatridecanoate)]
42 h cumulative amt (human abdominal skin; [2]): 10.0 ± 0.4 nmol
Flux (human abdominal skin; [2]): 0.4 ± 0.1 nmol/cm^2/h
Lag time (human abdominal skin; [2]): 11.8 ± 4.2 h
42 h cumulative amt (human abdominal skin; [3]): 26.4 ± 17.0 nmol
42 h skin conc (human abdominal skin; [3]): 2.9 ± 1.3 µmol/g
Flux (human abdominal skin; [3]): 1.4 ± 0.4 nmol/cm^2/h
Lag time (human abdominal skin; [3]): 19.2 ± 4.9 h
42 h cumulative amt (human abdominal skin; [4]): 23.0 ± 7.1 nmol
42 h skin conc (human abdominal skin; [4]): 0.6 ± 0.1 µmol/g
Flux (human abdominal skin; [4]): 0.8 ± 0.2 nmol/cm^2/h
Lag time (human abdominal skin; [4]): 9.1 ± 3.3 h
42 h cumulative amt (human abdominal skin; [5]): 59.5 ± 23.8 nmol
42 h skin conc (human abdominal skin; [5]): 3.5 ± 1.7 µmol/g
Flux (human abdominal skin; [5]): 2.6 ± 0.5 nmol/cm^2/h
Lag time (human abdominal skin; [5]): 14.9 ± 3.8 h
Flux enhancement (human abdominal skin; Table 16, 90:8:2 PG:H2O:IPM donor solution, 60/40 Hanks'/PEG 400 receiver fluid): 0.40
detected in the skin as (human abdominal skin; in donor solution): prodrug and small amounts as mono-substituted prodrug, ALL00131
flux compared to cannabidiol (human abdominal skin; in donor solution): did not increase the flux
lag time compared to cannabidiol (human abdominal skin; in donor solution): wasn't decreased
permeated through the skin as (human abdominal skin; in donor solution): intact prodrug, mono-substituted prodrug (ALL00131), and cannabidiol
total skin concentrations compared to cannabidiol (human abdominal skin; in donor solution): not higher
% mono-prodrug at time (h) ([1]; 1 h): 52%
% mono-prodrug at time (h) ([1]; 2 h): 44%
% mono-prodrug at time (h) ([1]; 4 h): 24%
% mono-prodrug at time (h) ([1]; 6 h): 15%
% mono-prodrug at time (h) ([1]; 24 h): 2%
% Di-prodrug at time (h) ([1]; 0 h): 100%
% Di-prodrug at time (h) ([1]; 1 h): 28%
% Di-prodrug at time (h) ([1]; 2 h): 15%
% Di-prodrug at time (h) ([1]; 4 h): 0%
% Di-prodrug at time (h) ([1]; 6 h): 0%
% Di-prodrug at time (h) ([1]; 24 h): 0%

C=C(C)[C@@H]1CCC(C)=C[C@H]1c1c(OC=O)cc(CCCCC)cc1OC=O [ALL00145, CBD Diformate]
30 h cumulative amt (human abdominal skin; [6]): 17.2 ± 4.5 nmol
30 h skin conc (human abdominal skin; [6]): 8.8 ± 7.0 µmol/g
Flux (human abdominal skin; [6]): 1.4 ± 0.1 nmol/cm^2/h
Lag time (human abdominal skin; [6]): 17.4 ± 3.3 h
30 h skin conc (human abdominal skin; Table 18, 90:8:2 PG:H2O:IPM donor solution, 40% aqueous PEG 400 receiver fluid, as applied compound (CBD or intact prodrug)): 3.8 ± 2.1 µmol/g
30 h cumulative amt (human abdominal skin; [7]): 17.5 ± 6.1 nmol
30 h skin conc (human abdominal skin; [7]): 23.5 ± 19.3 µmol/g
Flux (human abdominal skin; [7]): 1.5 ± 0.6 nmol/cm^2/h
Lag time (human abdominal skin; [7]): 19.0 ± 1.9 h
30 h cumulative amt (human abdominal skin; [8]): 34.7 ± 7.0 nmol
30 h skin conc (human abdominal skin; [8]): 36.1 ± 28.2 µmol/g
Flux (human abdominal skin; [8]): 2.9 ± 0.7 nmol/cm^2/h
Lag time (human abdominal skin; [8]): 17.2 ± 2.5 h
Flux enhancement (human abdominal skin; Table 18, 90:8:2 PG:H2O:IPM donor solution, 40% aqueous PEG 400 receiver fluid): 0.35
detected in the skin as (human abdominal skin; in donor solution): prodrug, mono-substituted prodrug, ALL00146, and cannabidiol
flux compared to cannabidiol (human abdominal skin; in donor solution): did not increase the flux
lag time compared to cannabidiol (human abdominal skin; in donor solution): wasn't decreased
share permeated through the skin as cannabidiol (human abdominal skin; in donor solution): approximately 50%
share permeated through the skin as mono-substituted prodrug (human abdominal skin; in donor solution): approximately 50%
total skin concentrations compared to cannabidiol (human abdominal skin; in donor solution): higher
% mono-prodrug at time (h) ([1]; 0 h): 40%
% mono-prodrug at time (h) ([1]; 0.5 h): 44%
% mono-prodrug at time (h) ([1]; 22 h): 23%
% mono-prodrug at time (h) ([1]; 24 h): 11%
% Di-prodrug at time (h) ([1]; 0 h): 60%
% Di-prodrug at time (h) ([1]; 0.5 h): 45%
% Di-prodrug at time (h) ([1]; 22 h): 37%
% Di-prodrug at time (h) ([1]; 24 h): 13%

C=C(C)[C@@H]1CCC(C)=C[C@H]1c1c(O)cc(CCCCC)cc1OC(=O)CO [ALL00149, CBD Glycolate]
24 h cumulative amt (human abdominal skin; [9]): 1.2 nmol
24 h skin conc (human abdominal skin; [9]): 0.9 ± 0.0 µmol/g
24 h cumulative amt (human abdominal skin; [10]): 5.8 nmol
24 h skin conc (human abdominal skin; [10]): 46.0 ± 11.5 µmol/g
Flux (human abdominal skin; [10]): 0.29 nmol/cm^2/h
Lag time (human abdominal skin; [10]): 6.4 h
24 h cumulative amt (human abdominal skin; [11]): 6.9 nmol
24 h skin conc (human abdominal skin; [11]): 46.3 ± 11.8 µmol/g
Flux (human abdominal skin; [11]): 0.40 nmol/cm^2/h
Lag time (human abdominal skin; [11]): 6.2 h
Flux enhancement (human abdominal skin; Table 23, gel formulation, 40% aqueous PEG 400 receiver fluid): 1.4
detected in the skin as (human abdominal skin; in gel formulation): primarily ALL00149 with a trace amount of cannabidiol
lag time compared to cannabidiol (human abdominal skin; in gel formulation): lower
permeated through the skin as (human abdominal skin; in gel formulation): primarily ALL00149 with a trace amount of cannabidiol
total skin concentrations compared to cannabidiol (human abdominal skin; in gel formulation): higher
increase of the flux compared to cannabidiol (human abdominal skin; in gel formulation, unit not given): 1.4
% Prodrug at time (h) ([1]; 0 h): 100%
% Prodrug at time (h) ([1]; 0.5 h): 31%
% Prodrug at time (h) ([1]; 1 h): 12%
% Prodrug at time (h) ([1]; 2 h): 0%
